Experimental data from patent US20260028330A1, “HETEROARYL CARBOXAMIDE AND RELATED GPR84 ANTAGONISTS AND USES THEREOF” (LIMINAL BIOSCIENCES LIMITED, priority 2022, published 2026).

Target: T1, human GPR84 receptor (Homo sapiens, UniProt Q9NQS5)
T1 construct: host or cells: HEK293 cells, transient transfection
Assay: Gαi biosensor BRET assay in transfected HEK293 cells (antagonism of GPR84 agonist ZQ-16)
Assay type: cell-based
Details: 200 nmol/L ZQ-16
Text: Background—The following assays can be used for determination of GPR84 activation in living HEK293 cells. The Gαi BRET biosensor (Gagnon et al., 2018; Gales et al., 2006. Nat Struct Mol Biol. 13, 778-86; Saulieres et al., 2012. Nat Chem Biol. 8, 622-30) allows to directly monitor GPR84-mediated activation of Gαi. The Gαi biosensor consists of a Rluc8-tagged Gαi2 subunit, a GFP10-tagged Gγ2 subunit, and an untagged Gβ1. Agonist stimulation and GPR84 activation triggers a physical separation between the RLuc8-Gαi donor and the GFP10-Gγ2 acceptor, resulting in a decrease in BRET signal whose amplitude is correlated to ligand efficacy (Gales et al., 2006). Moreover, signaling functions of GPCRs are tightly regulated by endocytosis, the targeting of receptors to endosomes and their sorting to lysosomes or recycling to the plasma membrane. The early endosomes (EEs) trafficking assay (Namkung et al., 2016. Nat Commun. 7, 12178) uses Rluc8-tagged GPR84 and Renilla GFP (rGFP) attached to the FYVE domain from human endofin/zinc finger FYVE domain-containing protein 16, which binds phosphatidylinositol 3-phosphate in EEs. Agonist stimulation of GPR84-Rluc8 leads to trafficking of the receptor to EEs, and ensuing increase of the donor concentration relative to the rGFP-FYVE acceptor anchored in the same cellular compartment, and thus results in an increase in BRET signal.
Plasmids—The cDNA clones for human GPR84 receptor, human Gαi2, Gβ1, and Gγ2 were obtained from the cDNA Resource Center (www.cdna.org). GFP10 (F64L, S147P, S202F and H231L variant of Aequorea victoria Green Fluorescent Protein) gBlocks gene fragments (Integrated DNA Technologies, IA) and linker were inserted in frame at the N-terminus of human Gγ2. Rluc8 (A55T, C124A, S130A, K136R, A143M, M185V, M253L, and S287L variant of the Renilla reniformis luciferase) gBlocks gene fragment was inserted with linkers in frame in between residues 91 and 92 of Gα2 or at the C-terminus of GPR84. The FYVE domain from human endofin (residues Q739 to K806) attached in frame at the C terminus of a humanized Renilla GFP (rGFP), were synthesized as gBlocks gene fragments.
Bioluminescence Resonance Energy Transfer (BRET) Measurement—HEK293 cells were transfected with GPR84-Rluc8 and rGFP-FYVE for the EEs trafficking biosensor or with GPR84, Gαi2-Rluc8, GFP10-Gγ2, and Gβ1 for the Gαi biosensor. The following day, transiently transfected cells were seeded in 96-well white clear bottom microplates coated with poly-D-lysine and left in culture for 24 hours. Cells were washed once with Tyrode's buffer (140 mmol/L NaCl, 1 mmol/L CaCl2, 2.7 mmol/L KCl, 0.49 mmol/L MgCl2, 0.37 mmol/L NaH2PO4, 5.6 mmol/L glucose, 12 mmol/L NaHCO3, and 25 mmol/L HEPES, pH 7.5) before performing assays in Tyrode's buffer. Test compounds were incubated with cells for 5 (Gui) or 15 (EEs) minutes at 37° C. before addition of 200 nmol/L of the GPR84 agonist ZQ-16 (2-(Hexylthio)-6-hydroxy-4(3H)-pyrimidinone) for 5 minutes at room temperature (Gui) or 30 minutes at 37° C. (EEs). The Rluc8 substrate coelenterazine 400A (Prolume, Lakeside, AZ) was added at a final concentration of 5 μmol/L and BRET readings were collected using an Infinite M1000 microplate reader (Tecan, Morrisville, NC). BRET^2 readings between Rluc8 and GFP10 or rGFP were collected by sequential integration of the signals detected in the 370 to 450 nm (Rluc8) and 510 to 540 nm (GFP10, rGFP) windows. The BRET signal was calculated as the ratio of light emitted by acceptor (GFP10, rGFP) over the light emitted by donor (Rluc8). The values were corrected to net BRET by subtracting the background BRET signal obtained in cells transfected with Rluc8 constructs alone. Ligand-promoted net BRET values were calculated by subtracting vehicle-induced net BRET from ligand-induced net BRET.

T1 sequence (Q9NQS5 whole entry): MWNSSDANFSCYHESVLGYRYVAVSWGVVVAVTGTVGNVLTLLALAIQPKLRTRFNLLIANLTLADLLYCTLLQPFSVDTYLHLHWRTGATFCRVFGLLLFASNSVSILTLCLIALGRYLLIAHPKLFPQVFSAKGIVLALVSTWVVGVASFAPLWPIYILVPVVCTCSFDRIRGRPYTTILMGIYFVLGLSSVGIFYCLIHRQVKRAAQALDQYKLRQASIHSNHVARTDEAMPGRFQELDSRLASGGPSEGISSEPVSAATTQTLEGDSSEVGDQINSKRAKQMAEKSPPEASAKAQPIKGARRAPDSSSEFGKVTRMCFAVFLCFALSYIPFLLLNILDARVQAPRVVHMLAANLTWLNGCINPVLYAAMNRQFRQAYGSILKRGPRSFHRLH

IC50 | SMILES
300 to 1000 nM | CN(C)c1cc(C#CC2CC2)ccc1N(C)C(=O)c1cn(CC2OCC3(CC3)CO2)nn1 [Compound I-1, 1-((5,7-dioxaspiro[2.5]octan-6-yl)methyl)-N-(4-(cyclopropylethynyl)-2-(dimethylamino)phenyl)-N-methyl-1H-1,2,3-triazole-4-carboxamide]
300 to 1000 nM | Cc1cc(C#CC2CC2)cnc1CN(C)c1cn(CC2OCC3(CC3)CO2)nn1 [Compound I-5, 1-((5,7-dioxaspiro[2.5]octan-6-yl)methyl)-N-((5-(cyclopropylethynyl)-3-methylpyridin-2-yl)methyl)-N-methyl-1H-1,2,3-triazol-4-amine]

Same assay, conditions: HEK293, single concentration, code A = 2 μM, 200 nmol/L ZQ-16

inhibition at 2 µM | SMILES
≤ 25% | Cc1ccc(C#CC2CC2)cc1Nc1cn(CC(=O)N(C)C)nn1 [Compound I-6, 2-(4-((5-(cyclopropylethynyl)-2-methylphenyl)amino)-1H-1,2,3-triazol-1-yl)-N,N-dimethylacetamide]
≤ 25% | Cc1ccc(C#CC2CC2)cc1NCc1cn(CC2OCC3(CC3)CO2)nn1 [Compound I-11, N-((1-((5,7-dioxaspiro[2.5]octan-6-yl)methyl)-1H-1,2,3-triazol-4-yl)methyl)-5-(cyclopropylethynyl)-2-methylaniline]

Same assay, conditions: HEK293, single concentration, code E = 6.7 μM, 200 nmol/L ZQ-16

inhibition at 6.7 µM | SMILES
≤ 25% | Cc1ccc(C#CC2CC2)cc1C(=O)Nc1cn(CC2OCC3(CC3)CO2)nn1 [Compound I-9, N-(1-((5,7-dioxaspiro[2.5]octan-6-yl)methyl)-1H-1,2,3-triazol-4-yl)-5-(cyclopropylethynyl)-2-methylbenzamide]

Same assay, conditions: HEK293, single concentration, code F = 10 μM, 200 nmol/L ZQ-16

SMILES | inhibition at 10 µM
CN(C)c1cc(C#CC2CC2)ccc1N(C)C(=O)c1cn(CC2OCC3(CC3)CO2)nn1 [Compound I-1, 1-((5,7-dioxaspiro[2.5]octan-6-yl)methyl)-N-(4-(cyclopropylethynyl)-2-(dimethylamino)phenyl)-N-methyl-1H-1,2,3-triazole-4-carboxamide] | > 75%
Cc1ccc(C#CC2CC2)cc1N(C)C(=O)c1ccc(OCC(=O)N(C)C)nc1C [Compound I-2, N-(5-(cyclopropylethynyl)-2-methylphenyl)-6-(2-(dimethylamino)-2-oxoethoxy)-N,2-dimethylnicotinamide] | ≤ 25%
Cc1ccc(C#CC2CC2)cc1N(C)C(=O)c1ccc(=O)n(CC(=O)N(C)C)c1C [Compound I-3, N-(5-(cyclopropylethynyl)-2-methylphenyl)-1-(2-(dimethylamino)-2-oxoethyl)-N,2-dimethyl-6-oxo-1,6-dihydropyridine-3-carboxamide] | ≤ 25%
Cc1cc(C#CC2CC2)cnc1CN(C)c1cn(CC2OCC3(CC3)CO2)nn1 [Compound I-5, 1-((5,7-dioxaspiro[2.5]octan-6-yl)methyl)-N-((5-(cyclopropylethynyl)-3-methylpyridin-2-yl)methyl)-N-methyl-1H-1,2,3-triazol-4-amine] | > 75%
CN(c1cn(CC2OCC3(CC3)CO2)nn1)c1cc(C#CC2CC2)ccc1Cl [Compound I-8, 1-((5,7-dioxaspiro[2.5]octan-6-yl)methyl)-N-(2-chloro-5-(cyclopropylethynyl)phenyl)-N-methyl-1H-1,2,3-triazol-4-amine] | > 75%
Cc1ccc(C#CC2CC2)cc1N(C)Cc1cn(CC2OCC3(CC3)CO2)nn1 [Compound I-12, N-((1-((5,7-dioxaspiro[2.5]octan-6-yl)methyl)-1H-1,2,3-triazol-4-yl)methyl)-5-(cyclopropylethynyl)-N,2-dimethylaniline] | 25 to 50%
Cc1ccc(C#CC2CC2)cc1NC(=O)c1cn(CC2OCC3(CC3)CO2)nn1 [Compound I-14] | ≤ 25%

The next lines start with the values.

inhibition at 10 µM | SMILES
≤ 25% | Cc1ccc(C#CC2CC2)c2c1N(C(=O)c1cn(CC3OCC4(CC4)CO3)nn1)CC2 [Compound I-4, (1-((5,7-dioxaspiro[2.5]octan-6-yl)methyl)-1H-1,2,3-triazol-4-yl)(4-(cyclopropylethynyl)-7-methylindolin-1-yl)methanone]
> 75% | Cc1ccc(C#CC2CC2)cc1N(C)c1cn(CC(=O)N(C)C)nn1 [Compound I-7, 2-(4-((5-(cyclopropylethynyl)-2-methylphenyl)(methyl)amino)-1H-1,2,3-triazol-1-yl)-N,N-dimethylacetamide]
25 to 50% | Cc1ccc(C#CC2CC2)cc1CN(C)c1cn(CC2OCC3(CC3)CO2)nn1 [Compound I-10, 1-((5,7-dioxaspiro[2.5]octan-6-yl)methyl)-N-(5-(cyclopropylethynyl)-2-methylbenzyl)-N-methyl-1H-1,2,3-triazol-4-amine]
25 to 50% | Cc1ccc(C#CC2CC2)cc1N(C)C(=O)c1cn(CC(=O)N(C)C)nn1 [Compound I-13, N-(5-(cyclopropylethynyl)-2-methylphenyl)-1-(2-(dimethylamino)-2-oxoethyl)-N-methyl-1H-1,2,3-triazole-4-carboxamide]
